Test results published in patent US20240360146A1, “BRUTON'S TYROSINE KINASE AND MUTANT DEGRADER, COMPOSITION AND APPLICATION THEREOF” (HANGZHOU HEALZEN THERAPEUTICS CO., LTD., priority 2021, published 2024).

What was measured:
Format in all cases: cell-based
Mino cells = assay: Inhibitory activity on Mino cell proliferation (MTS); settings: Homo sapiens, 168 h incubation
Description: (§1) The anti-tumor efficacy of the compounds was tested by measuring their inhibitory effects on OCI-LY10 and Mino cell proliferation. OCI-LY10 and Mino cells were cultured in RPMI-1640 medium containing 10% fetal calf serum. OCI-LY10 and Mino cells were digested, inoculated in a 96-well plate at a cell concentration of 10000 cells/well, and incubated overnight at 37° C., 5% CO2. Compounds of different concentrations (1000 nM, 4-fold dilution, 8 points) were added to the 96-well plate and incubated for 72 h (LY10) or 168 h (Mino) at 37° C. and 5% CO2, and then 20 uL of MTS was added to each well. After incubation for 2 h, 25 μl of 10% SDS was added to each well to terminate the reaction. The absorbance at 490 nm and 650 nm were measured with a microplate reader. IC50 was calculated using GraphPad Prism 5.0.

BTK = biological target: T1, BTK (Homo sapiens, UniProt Q06187); assay: BTK degradation activity test in Mino cells; settings: 16 h incubation, Western blot or Elisa
T1 construct: endogenous in cells; host or cells: Mino cells
How it was run: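 DC50 derived by curve fitting of BTK degradation rates versus untreated control across compound concentrations. Mino cells were exposed for 16 h; BTK levels in lysates, normalised via BCA protein, measured by Western blot or ELISA.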

OCI-LY10 cells = assay: Inhibitory activity on OCI-LY10 cell proliferation (MTS); settings: Homo sapiens, 72 h
Description: as §1

T1 sequence (Q06187 whole entry): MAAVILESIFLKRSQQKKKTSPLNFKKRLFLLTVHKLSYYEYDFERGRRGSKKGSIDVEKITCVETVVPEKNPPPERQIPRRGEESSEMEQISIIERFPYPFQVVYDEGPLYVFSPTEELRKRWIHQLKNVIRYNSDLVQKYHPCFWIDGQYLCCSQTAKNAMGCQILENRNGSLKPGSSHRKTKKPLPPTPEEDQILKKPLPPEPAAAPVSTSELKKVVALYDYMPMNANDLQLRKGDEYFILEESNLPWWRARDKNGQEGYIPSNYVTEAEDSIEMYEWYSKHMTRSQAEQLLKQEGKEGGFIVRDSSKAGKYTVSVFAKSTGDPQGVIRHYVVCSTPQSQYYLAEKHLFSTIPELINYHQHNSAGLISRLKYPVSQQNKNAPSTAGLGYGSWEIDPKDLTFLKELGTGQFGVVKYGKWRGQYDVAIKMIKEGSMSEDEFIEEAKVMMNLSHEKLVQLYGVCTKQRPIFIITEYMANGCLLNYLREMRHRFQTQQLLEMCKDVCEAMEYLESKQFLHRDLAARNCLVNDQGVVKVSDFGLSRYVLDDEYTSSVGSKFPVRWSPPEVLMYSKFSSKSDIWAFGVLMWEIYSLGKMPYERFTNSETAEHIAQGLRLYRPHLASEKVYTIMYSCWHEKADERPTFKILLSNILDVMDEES

DC50 (BTK) [nM]	IC50 (OCI-LY10 cells) [nM]	SMILES	IC50 (Mino cells) [nM]
< 1	0.11	CN1CCN([C@@H]2CCCN(c3ncc(C(N)=O)c(Nc4ccc(C5CCN(CC6CCN(c7ccc8c(c7)C(=O)N(C7CCC(=O)NC7=O)C8=O)C6)CC5)cc4)n3)C2)C1=O (stereo partly drawn) [Compound 116, 4-((4-(1-((1-(2-(2,6-dioxopiperidin-3-yl)-1,3-dioxoisoindolin-5-yl)pyrrolidin-3-yl)methyl)piperidin-4-yl)phenyl)amino)-2-((R)-3-(3-methyl-2-oxoimidazolin-1-yl)piperidin-1-yl)pyrimidin-5-carboxamide]	1.34
< 1	0.14	CN1CCN([C@@H]2CCCN(c3nnc(C(N)=O)c(Nc4ccc(C5CCN(CC6CCN(c7ccc8c(c7)C(=O)N(C7CCC(=O)NC7=O)C8=O)CC6)CC5)c(F)c4)n3)C2)C1=O (stereo partly drawn) [Compound 129, 5-((4-(1-((1-(2-(2,6-dioxopiperidin-3-yl)-1,3-dioxoisoindolin-5-yl)piperidin-4-yl)methyl)piperidin-4-yl)-3-fluorophenyl)amino)-3-((R)-3-(3-methyl-2-oxoimidazolin-1-yl)piperidin-1-yl)-1,2,4-triazin-6-carboxamide]	3.09
< 1	< 1	Cc1cc(N2CCC(CN3CCN(c4ccc(Nc5nc(N6CCC[C@@H](N7CCN(C)C7=O)C6)nnc5C(N)=O)cc4F)CC3)CC2)ccc1C(=O)NC1CCC(=O)NC1=O (stereo partly drawn) [Compound 180, 5-((4-(4-((1-(4-((2,6-dioxopiperidin-3-yl)carbamoyl)-3-methylphenyl)piperidin-4-yl)methyl)piperazin-1-yl)-3-fluorophenyl)amino)-3-((R)-3-(3-methyl-2-oxoimidazolidin-1-yl)piperidin-1-yl)-1,2,4-triazin-6-carboxamide]	1.07
< 1	1.05	CN1CCN([C@@H]2CCCN(c3nnc(C(N)=O)c(Nc4ccc(N5CCN(CC6CCN(c7ccc(NC8CCC(=O)NC8=O)nc7)CC6)CC5)c(F)c4)n3)C2)C1=O (stereo partly drawn) [Compound 202, 5-((4-(4-((1-(6-((2,6-dioxopiperidin-3-yl)amino)pyridin-3-yl)piperidin-4-yl)methyl)piperazin-1-yl)-3-fluorophenyl)amino)-3-((R)-3-(3-methyl-2-oxoimidazolidin-1-yl)piperidin-1-yl)-1,2,4-triazin-6-carboxamide]	6.83
< 1	0.38	CN1CCN([C@@H]2CCCN(c3nnc(C(N)=O)c(Nc4ccc(N5CCC(CN6CCN(c7ccc8c(c7)C(=O)N(C7CCC(=O)NC7=O)C8=O)CC6)CC5)cc4)n3)C2)C1=O (stereo partly drawn) [Compound 119, 5-((4-(4-((4-(2-(2,6-dioxopiperidin-3-yl)-1,3-dioxoisoindolin-5-yl)piperazin-1-yl)methy 1)piperidin-1-yl)phenyl)amino)-3-((R)-3-(3-methyl-2-oxoimidazolin-1-yl)piperidin-1-yl)-1,2,4-triazin-6-carboxamide]	8.09
< 1	0.52	CN1CCN([C@@H]2CCCN(c3nnc(C(N)=O)c(Nc4ccc(N5CCN(CC6CCN(c7ccc(N8CCC(=O)NC8=O)cn7)CC6)CC5)c(F)c4)n3)C2)C1=O [Compound 196, (R)-5-((4-(4-((1-(5-(2,4-dioxotetrahydropyrimidin-1(2H)-yl)pyridin-2-yl)piperidin-4-yl)methyl)piperazin-1-yl)-3-fluorophenyl)amino)-3-(3-(3-methyl-2-oxoimidazolidin-1-yl)piperidin-1-yl)-1,2,4-triazin-6-carboxamide]	3.77
< 1	0.45	CN1CCN([C@@H]2CCCN(c3nnc(C(N)=O)c(Nc4ccc(N5CCN(CC6CCN(c7ccc8c(c7)CN(C7CCC(=O)NC7=O)C8=O)CC6)CC5)c(F)c4)n3)C2)C1=O (stereo partly drawn) [Compound 167, 5-((4-(4-((1-(2-(2,6-dioxopiperidin-3-yl)-1-oxoisoindolin-5-yl)piperidin-4-yl)methyl)piperazin-1-yl)-3-fluorophenyl)amino)-3-((R)-3-(3-methyl-2-oxoimidazolidin-1-yl)piperidin-1-yl)-1,2,4-triazin-6-carboxamide]	2.42
< 1	0.79	CN1CCN([C@@H]2CCCN(c3nnc(C(N)=O)c(Nc4ccc(N5CCN(CC6CCN(c7ccc8c(c7)C(=O)N(C7CCC(=O)NC7=O)C8)CC6)CC5)c(F)c4)n3)C2)C1=O (stereo partly drawn) [Compound 168, 5-((4-(4-((1-(2-(2,6-dioxopiperidin-3-yl)-3-oxoisoindolin-5-yl)piperidin-4-yl)methyl)piperazin-1-yl)-3-fluorophenyl)amino)-3-((R)-3-(3-methyl-2-oxoimidazolidin-1-yl)piperidin-1-yl)-1,2,4-triazin-6-carboxamide]	3.77
< 1	1.25	CN1CCN([C@@H]2CCCN(c3nnc(C(N)=O)c(Nc4ccc(N5CCN(CC6CCN(c7cc8c(cc7F)C(=O)N(C7CCC(=O)NC7=O)C8=O)CC6)CC5)c(F)c4)n3)C2)C1=O (stereo partly drawn) [Compound 170, 5-((4-(4-((1-(2-(2,6-dioxopiperidin-3-yl)-6-fluoro-1,3-dioxoisoindolin-5-yl)piperidin-4-yl)methyl)piperazin-1-yl)-3-fluorophenyl)amino)-3-((R)-3-(3-methyl-2-oxoimidazolidin-1-yl)piperidin-1-yl)-1,2,4-triazin-6-carboxamide]	4.64
< 1	0.33	CN1CCN([C@@H]2CCCN(c3ncc(C(N)=O)c(Nc4ccc(C5CCN(CC6CCN(c7ccc8c(c7)C(=O)N(C7CCC(=O)NC7=O)C8=O)CC6)CC5)cc4)n3)C2)C1=O (stereo partly drawn) [Compound 117, 4-((4-(1-((1-(2-(2,6-dioxopiperidin-3-yl)-1,3-dioxoisoindolin-5-yl)piperidin-4-yl)methyl)piperidin-4-yl)phenyl)amino)-2-((R)-3-(3-methyl-2-oxoimidazolin-1-yl)piperidin-1-yl)pyrimidin-5-carboxamide]	3.08
< 1	2.65	CN1CCN([C@@H]2CCCN(c3nnc(C(N)=O)c(Nc4ccc(N5CCN(CC6CCN(c7ccc(NC8CCC(=O)NC8=O)cn7)CC6)CC5)c(F)c4)n3)C2)C1=O (stereo partly drawn) [Compound 203, 5-((4-(4-((1-(5-((2,6-dioxopiperidin-3-yl)amino)pyridin-2-yl)piperidin-4-yl)methyl)piperazin-1-yl)-3-fluorophenyl)amino)-3-((R)-3-(3-methyl-2-oxoimidazolidin-1-yl)piperidin-1-yl)-1,2,4-triazin-6-carboxamide]	1.25
< 1	0.27	CN1CCN(C2CC3CC2N(c2cnc(C(N)=O)c(Nc4ccc(C5CCN(CC6CCN(c7ccc8c(c7)C(=O)N(C7CCC(=O)NC7=O)C8=O)CC6)CC5)cc4)n2)C3)C1=O (stereo not drawn) [Compound 118, 3-((4-(1-((1-(2-(2,6-dioxopiperidin-3-yl)-1,3-dioxoisoindolin-5-yl)piperidin-4-yl)methyl)piperidin-4-yl)phenyl)amino)-5-(6-(3-methyl-2-oxoimidazolin-1-yl)-2-azabicyclo[2.2.1]heptan-2-yl)pyrazin-2-carboxamide]	10.7
< 1	< 0.26	CN1CCN([C@@H]2CCCN(c3nnc(C(N)=O)c(Nc4ccc(C5CCN(CC6CCN(c7ccc8c(c7)C(=O)N(C7CCC(=O)NC7=O)C8=O)C6)CC5)cc4)n3)C2)C1=O (stereo partly drawn) [Compound 124, 5-((4-(1-((1-(2-(2,6-dioxopiperidin-3-yl)-1,3-dioxoisoindolin-5-yl)pyrrolidin-3-yl)methyl)piperidin-4-yl)phenyl)amino)-3-((R)-3-(3-methyl-2-oxoimidazolin-1-yl)piperidin-1-yl)-1,2,4-triazin-6-carboxamide]	4.95
< 1	2.19	NC(=O)c1nnc(N2CCC[C@@H](N3CCN(CC(F)(F)F)C3=O)C2)nc1Nc1ccc(C2CCN(CC3CCN(c4ccc5c(c4)C(=O)N(C4CCC(=O)NC4=O)C5=O)CC3)CC2)cc1 (stereo partly drawn) [Compound 141, 5-((4-(1-((1-(2-(2,6-dioxopiperidin-3-yl)-1,3-dioxoisoindolin-5-yl)piperidin-4-yl)methyl)piperidin-4-yl)phenyl)amino)-3-((R)-3-(2-oxo-3-(2,2,2-trifluoroethyl)imidazolin-1-yl)piperidin-1-yl)-1,2,4-triazin-6-carboxamide]	3.92
